{"source": "patent US11439607B2", "about": "(Paracelsus Neuroscience I, LLC, priority 2016, dated 2022)", "key": {"[1]": {"tested_on": "Oxaliplatin model", "test": "Oxaliplatin - Acetone test (reaction time)", "format": "in vivo, rodent", "details": "Internal reference, Gabapentin 100 mg/kg p.o.", "protocol": "(§1) Depending on the test, the percentage of activity was calculated from the mean value of the vehicle-treated animals and compared to naïve animals, control paw or cut-off value."}, "[2]": {"tested_on": "CCI rats", "test": "Chronic constriction injury (CCI) model, von Frey paw withdrawal threshold", "format": "in vivo, rat", "details": "gabapentin 100 mg/kg p.o., 2 hours after administration", "protocol": "Peripheral nerve injury was performed according to the method of Bennett and Xie (Bennett and Xie, 1988), with paw withdrawal thresholds to Von Frey filament stimulation measured as described previously (Chaplan et al., 1994; Tal and Bennett, 1994).\nIn the first cohort of nerve injured rats, hindpaw mechanical hypersensitivity was evident by day 7 and maintained for the duration of the experiment (see FIG. 4A). […] Experiments were run using a simple cross-over design. Tactile hypersensitivity of rats was evaluated one day prior to drug testing. Drugs were allowed to wash out for one week at which time the mechanical hypersensitivity was reassessed. Rats were then randomly re-assigned to groups prior to the next arm of the study being run. In the final arm, tissue was collected from 3 animals from each group immediately after behavioral assessment of allodynia. Dosing of drugs, assessment of mechanical thresholds and collection of tissues were performed by individual experimenters all blinded to treatments.\nAll CCI data are presented as mean+/−S.E.M. and were analyzed using ANOVA followed by Fisher's PLSD post-hoc analysis (StatView, Cary, N.C.) when appropriate."}, "[3]": {"tested_on": "Carrageenan model", "test": "Carrageenan - Paw pressure test", "format": "in vivo, rodent", "details": "Internal reference, Indomethacin 30 mg/kg p.o.", "protocol": "as §1"}, "[4]": {"tested_on": "Kaolin model", "test": "Kaolin - Gait score", "format": "in vivo, rodent", "details": "Internal reference, Indomethacin 10 mg/kg p.o.", "protocol": "as §1"}, "[5]": {"tested_on": "Bennett model", "test": "Bennett model - Paw pressure test", "format": "in vivo, rodent", "details": "Internal reference, Morphine 4 mg/kg s.c.", "protocol": "as §1"}, "[6]": {"tested_on": "Brennan model", "test": "Brennan model - Electronic Von Frey test", "format": "in vivo, rodent", "details": "Internal reference, Morphine 4 mg/kg s.c.", "protocol": "as §1"}, "[7]": {"tested_on": "Healthy rats", "test": "Healthy rats - Paw pressure test", "format": "in vivo", "details": "Internal reference, Morphine 4 mg/kg s.c.", "protocol": "as §1"}, "[8]": {"tested_on": "Formalin test", "test": "Formalin test - Score", "format": "in vivo, rodent", "details": "internal reference, Morphine 4 mg/kg s.c.", "protocol": "as §1"}, "[9]": {"tested_on": "Healthy rats", "test": "Healthy rats - Tail flick test", "format": "in vivo", "details": "Internal reference, Morphine 4 mg/kg s.c.", "protocol": "as §1"}}, "data": [{"smiles": "NCC1(CC(=O)O)CCCCC1", "note": "[Gabapentin]", "values": [{"measurement": "% of activity vs. vehicle", "setting": "[1]", "value": 82, "unit": "%"}, {"measurement": "Reversal of mechanical hypersensitivity (tactile allodynia)", "setting": "[2]", "value": 66, "unit": "%"}]}, {"smiles": "COc1ccc2c(c1)c(CC(=O)O)c(C)n2C(=O)c1ccc(Cl)cc1", "note": "[Indomethacin]", "values": [{"measurement": "% of activity vs. vehicle", "setting": "[3]", "value": 100, "unit": "%"}, {"measurement": "% of activity vs. vehicle", "setting": "[4]", "value": 58, "unit": "%"}]}, {"smiles": "CN1CC[C@]23c4c5ccc(O)c4O[C@H]2[C@@H](O)C=C[C@H]3[C@H]1C5", "note": "[Morphine]", "values": [{"measurement": "% of activity vs. vehicle", "setting": "[5]", "value": 191, "unit": "%"}, {"measurement": "% of activity vs. vehicle", "setting": "[6]", "value": 88, "unit": "%"}, {"measurement": "% of activity vs. vehicle", "setting": "[7]", "value": 69, "unit": "%"}, {"measurement": "% of activity vs. vehicle", "setting": "[8]; early phase", "value": 57, "unit": "%"}, {"measurement": "% of activity vs. vehicle", "setting": "[8]; late phase", "value": 38, "unit": "%"}, {"measurement": "% of activity vs. vehicle", "setting": "[9]", "value": 66, "unit": "%"}]}]}
